# Laboratory results: article PMC9800617, “Pharmacokinetics/pharmacodynamics of polymyxin B in patients with bloodstream infection caused by carbapenem-resistant Klebsiella pneumoniae” (Frontiers in Pharmacology, 2022)
# Like-named read-outs stand apart in the source and are kept apart here.
# Columns and labels:
# [1] = test system: carbapenem-resistant K. pneumoniae; details: retrospective, 2021, cited from earlier work
# Excerpt: In the present study, microbiological eradication was achieved by the third day of treatment in all eight patients assessed and blood culture remained negative until they had completed the study or withdrew. Clinical improvement occurred in 6 of 8 (75%) of th ...
# [2] = test system: carbapenem-resistant K. pneumoniae (CRKP) strains; experiment: Broth microdilution MIC (EUCAST); format: cell-based; details: Klebsiella pneumoniae
# Protocol: The minimum inhibitory concentrations (MICs) to polymyxin B and meropenem of the collected CRKP strains were determined by broth microdilution according to the European Committee on Antimicrobial Susceptibility Testing (EUCAST) guidelines and interpreted according to EUCAST breakpoints of colistin (Breakpoint tables for interpretation of MICs and zone diameters, Version 11.0); Escherichia coli ATCC 25922 was used as the control strain. Polymerase chain reaction (PCR) was employed to determine the presence of resistance genes (KPC, NDM, IMP, OXA, VIM). The primers were the same as in a published protocol and the sample process procedures were adapted a little bit ([Poirel et al., 2011]). To be brief, a single colony of the bacteria were picked and resuspended in ultra-pure water, and total DNA was extracted by heating bacterial suspension at 100°C for 10 min to lysis and release DNA. The suspension was centrifuged for total DNA which was dissolved in supernatant. Then 2 µl total DNA, 1 µl forward and 1 µl reverse primers (10 µM) for each targeted gene, 12.5 µl 2 × Hieff® Robust PCR Master Mix (Yeasen, Shanghai, China) and ultra-pure water were mixed into a 25 µl reaction mixture. […] Finally amplified DNA fragments were analyzed by electrophoresis in a 1% agarose gel. […]
# P. aeruginosa = details: cited from earlier work
# Protocol: (§1) Monte Carlo simulations were conducted for the probability of target attainment (PTA) analysis to guide the selection of optimal dosage regimens. Different dosage regimens were simulated by the PPK model and AUCss,24h were calculated. […] The maximal reductions in colony f ... || FIGURE 4 Probability of target attainment for different dosage regimens of polymyxin B against common carbapenem-resistant organisms according to PK/PD simulations. (A) Loading dose for three bacterial species. […] In preclinical studies, the fAUC/MIC required for various magnitudes of bacterial killing varied among bacterial strains and infection sites. […] Against P. aeruginosa and A. b ... || (+ 2 further places)
# A. baumannii = details: cited from earlier work
# Protocol: as §1
compound,measurement,setting,value
ceftazidime-avibactam,30-day mortality,"[1]; CRKP BSI, alone or combined with other antibiotics, ref Tumbarello et al.",around 25%
C[C@@H](O)[C@H]1C(=O)N2C(C(=O)O)=C(S[C@@H]3CN[C@H](C(=O)N(C)C)C3)[C@H](C)[C@H]12 [meropenem],MIC,"[2]; 9 strains (all except strain No. 2–2), read-out: meropenem MIC",> 64 µg/mL
same,MIC,"[2]; strain No. 2–2, read-out: meropenem MIC",4 µg/mL
colistin,fAUC24h/MIC target,"P. aeruginosa; 2-log10 reduction against P. aeruginosa, murine thigh infection, ref Cheah et al., 2015",13.5
same,fAUC/MIC target,"P. aeruginosa; 2 log10 kill, mouse thigh infection, P. aeruginosa, ref Dudhani et al., 2010a, 2010b",~17
same,fAUC24h/MIC target,"A. baumannii; 2-log10 reduction against A. baumannii, murine thigh infection, ref Cheah et al., 2015",17.6
same,fAUC/MIC target,"A. baumannii; 2 log10 kill, mouse thigh infection, A. baumannii, ref Dudhani et al., 2010a, 2010b",~17
NCC[C@H](O)C(=O)N[C@@H]1C[C@H](N)[C@@H](O[C@H]2O[C@H](CN)[C@@H](O)[C@H](O)[C@H]2O)[C@H](O)[C@H]1O[C@H]1O[C@H](CO)[C@@H](O)[C@H](N)[C@H]1O [amikacin],30-day mortality,"[1]; amikacin and its combinations for CRKP infection, ref Rodrigues et al.",34.5%
